In brackets after ≈: the same amount, converted by molar mass. Where two headings read alike, the source gives them in different places. Blank lines part the entries; values can stand above or below the molecule they belong to.
Experiments:
[1] = system: Salmonella choleraesuis; assay: MIC in nutrient agar, Salmonella choleraesuis; type: cell-based, Salmonella choleraesuis (ATCC 10708); details: Salmonella enterica
Protocol: (§1) The minimum inhibitory concentration (MIC) for the compounds listed in Table I is determined for bacteria, using nutrient agar, and 7 yeast and fungi, using malt yeast agar. A one percent solution of the test compound is prepared in a mixture of acetone and water.
(§2) Nutrient agar is prepared at pH 6.8, representing a neutral medium, and at pH 8.2, representing an alkaline medium. The nutrient agars are prepared by adding 23 g of nutrient agar to one-liter of deionized water. In addition, the alkaline medium is prepared by adjusting a 0.04M solution of N-(tris-(hydroxymethyl)methyl)glycine buffered deionized water with concentrated sodium hydroxide to a pH of 8.5.
(§3) The test tubes containing the agar are cooled in a water bath until the temperature of the agar is 48° C. Then, an appropriate amount of the one percent solution of the test compound is added (except in the controls where no compound is added) to the respective test tubes so that the final concentrations are 500, 250, 100, 50, 25, 10, 2.5, 1.0 and zero parts per million of the test compound in the agar, thus having a known concentration of test compound dispersed therein. The contents of the test tubes are then transferred to respective petri plates. After drying for 24 hours, the petri plates containing nutrient agar are inoculated with bacteria and those containing malt yeast agar are inoculated with yeast and fungi.
(§4) The inoculation with bacteria is accomplished by using the following procedure. Twenty-four hour-cultures of each of the bacteria are prepared by incubating the respective bacteria in tubes containing nutrient broth for 24 hours at 30° C. in a shaker. Dilutions of each of the 24 hour-cultures are made so that nine separate suspensions (one for each of the nine test bacteria) are made, each containing 10^8 colony forming units (CFU) per mL of suspension of a particular bacteria. Aliquots of 0.3 mL of each of the bacterial suspensions are used to fill the individual wells of Steer's Replicator. For each microbial suspension, 0.3 mL was used to fill three wells (i.e., three wells of 0.3 mL each) so that for the nine different bacteria, 27 wells are filled. The Steer's Replicator is then used to inoculate both the neutral and alkaline pH nutrient agar petri plates.
(§5) The inoculated petri plates are incubated at 30° C. for 48 hours and then read to determine if the test compound which is incorporated into the agar prevented growth of the respective bacteria.
(§6) Table II lists the bacteria, yeast and fungi used in the MIC test described above along with their respective American Type Culture Collection (ATCC) identification numbers.
(§7) In Tables III and IV, the MIC values of the compounds described in Table I as compared to the MIC of a standard commercial preservative (with 1-(3-chloroalkyl)-3,5,7-triaza-1-azoniaadamantane chloride as the active agent and referred to in Tables III and IV as "STANDARD I") are set forth for the bacteria organisms and yeast/fungi organisms which are listed in Table II.

[2] = system: Saccharomyces cerevisiae; assay: MIC in malt yeast agar, Saccharomyces cerevisiae; type: cell-based, Saccharomyces cerevisiae (ATCC 4105); details: read-out: Minimum Inhibitory Concentration (MIC)
Protocol: as §1
(§8) Malt yeast agar is prepared by adding 3 g yeast extract and 45 g malt agar per liter of deionized water. The specific agar is dispensed in 30 mL aliquots into 25×200 mm test tubes, capped and autoclaved for 15 minutes at 115° C.
as §3
(§9) The inoculation with the yeast and fungi is accomplished as follows. Cultures of yeast and fungi are incubated for seven days on malt yeast agar at 30° C. These cultures are used to prepare suspensions by the following procedure. A suspension of each organism is prepared by adding 10 mL of sterile saline and 10 microliters of octylphenoxy polyethoxy ethanol to the agar slant of yeast or fungi. The sterile saline/octylphenoxy polyethoxy ethanol solution is then agitated with a sterile swab to suspend the microorganism grown on the slant. Each resulting suspension is diluted into sterile saline (1 part suspension: 9 parts sterile saline). Aliquots of these dilutions are placed in individual wells of Steer's Replicator and petri plates inoculated as previously described. The petri plates are incubated at 30° C. and read after 48 hours for yeast and 72 hours for fungi.
as §6, §7

[3] = system: Escherichia coli; assay: MIC in nutrient agar, Escherichia coli; type: cell-based, Escherichia coli (ATCC 11229)
Protocol: as §1, §2, §3, §4, §5, §6, §7

[4] = system: Fusarium oxysporum; assay: MIC in malt yeast agar, Fusarium oxysporum; type: cell-based, Fusarium oxysporum (ATCC 48112); details: read-out: Minimum Inhibitory Concentration (MIC)
Protocol: as §1, §8, §3, §9, §6, §7

[5] = system: Enterobacter aerogenes; assay: MIC in nutrient agar, Enterobacter aerogenes; type: cell-based, Enterobacter aerogenes (ATCC 13048); details: Klebsiella aerogenes
Protocol: as §1, §2, §3, §4, §5, §6, §7

[6] = system: Klebsiella pneumonias; assay: MIC in nutrient agar, Klebsiella pneumonias; type: cell-based, Klebsiella pneumonias (ATCC 8308)
Protocol: as §1, §2, §3, §4, §5, §6, §7

[7] = system: Proteus vulgaris; assay: MIC in nutrient agar, Proteus vulgaris; type: cell-based, Proteus vulgaris (ATCC 881)
Protocol: as §1, §2, §3, §4, §5, §6, §7

[8] = system: Aspergillus niger; assay: MIC in malt yeast agar, Aspergillus niger; type: cell-based, Aspergillus niger (ATCC 16404); details: read-out: Minimum Inhibitory Concentration (MIC)
Protocol: as §1, §8, §3, §9, §6, §7

[9] = system: Pseudomonas aeruginosa (PRD-10); assay: MIC in nutrient agar, Pseudomonas aeruginosa (PRD-10); type: cell-based, Pseudomonas aeruginosa (ATCC 15442)
Protocol: as §1, §2, §3, §4, §5, §6, §7

[10] = system: Pseudomonas aeruginosa; assay: MIC in nutrient agar, Pseudomonas aeruginosa (Pa); type: cell-based, Pseudomonas aeruginosa (ATCC 10145)
Protocol: as §1, §2, §3, §4, §5, §6, §7

[11] = system: Bacillus subtilis; assay: MIC in nutrient agar, Bacillus subtilis; type: cell-based, Bacillus subtilis (ATCC 8473)
Protocol: as §1, §2, §3, §4, §5, §6, §7

[12] = system: Aureobasidium pullulan; assay: MIC in malt yeast agar, Aureobasidium pullulan; type: cell-based, Aureobasidium pullulan (ATCC 16622); details: read-out: Minimum Inhibitory Concentration (MIC)
Protocol: as §1, §8, §3, §9, §6, §7

[13] = system: Candida albicans; assay: MIC in malt yeast agar, Candida albicans; type: cell-based, Candida albicans (ATCC 10231); details: read-out: Minimum Inhibitory Concentration (MIC)
Protocol: as §1, §8, §3, §9, §6, §7

[14] = system: Trichoderma viride; assay: MIC in malt yeast agar, Trichoderma viride; type: cell-based, Trichoderma viride (ATCC 8678); details: read-out: Minimum Inhibitory Concentration (MIC)
Protocol: as §1, §8, §3, §9, §6, §7

[15] = system: Staphylococcus aureus; assay: MIC in nutrient agar, Staphylococcus aureus; type: cell-based, Staphylococcus aureus (ATCC 6538)
Protocol: as §1, §2, §3, §4, §5, §6, §7

[16] = system: Penicillium chrysogenum; assay: MIC in malt yeast agar, Penicillium chrysogenum; type: cell-based, Penicillium chrysogenum (ATCC 9480); details: read-out: Minimum Inhibitory Concentration (MIC)
Protocol: as §1, §8, §3, §9, §6, §7

[17] = 48 h, pH 6.8, read-out: Minimum Inhibitory Concentration (MIC)
[18] = 48 h, pH 8.2, read-out: Minimum Inhibitory Concentration (MIC)
[19] = Sc, pH 6.8, 30° C., 48 hours, read-out: Minimum Inhibitory Concentration (MIC)
[20] = Sc, pH 8.2, 30° C., 48 hours, read-out: Minimum Inhibitory Concentration (MIC)
[21] = Sc, malt yeast agar, 30° C., 48 hours for yeast
[22] = Ec, pH 6.8, 30° C., 48 hours, read-out: Minimum Inhibitory Concentration (MIC)
[23] = Ec, pH 8.2, 30° C., 48 hours, read-out: Minimum Inhibitory Concentration (MIC)
[24] = Fo, malt yeast agar, 30° C., 72 hours for fungi
[25] = Ea, pH 6.8, 30° C., 48 hours, read-out: Minimum Inhibitory Concentration (MIC)
[26] = Ea, pH 8.2, 30° C., 48 hours, read-out: Minimum Inhibitory Concentration (MIC)
[27] = Kp, pH 6.8, 30° C., 48 hours, read-out: Minimum Inhibitory Concentration (MIC)
[28] = Kp, pH 8.2, 30° C., 48 hours, read-out: Minimum Inhibitory Concentration (MIC)
[29] = Pv, pH 6.8, 30° C., 48 hours, read-out: Minimum Inhibitory Concentration (MIC)
[30] = Pv, pH 8.2, 30° C., 48 hours, read-out: Minimum Inhibitory Concentration (MIC)
[31] = An, malt yeast agar, 30° C., 72 hours for fungi
[32] = PRD, pH 6.8, 30° C., 48 hours, read-out: Minimum Inhibitory Concentration (MIC)
[33] = PRD, pH 8.2, 30° C., 48 hours, read-out: Minimum Inhibitory Concentration (MIC)
[34] = Pa, pH 6.8, 30° C., 48 hours, read-out: Minimum Inhibitory Concentration (MIC)
[35] = Pa, pH 8.2, 30° C., 48 hours, read-out: Minimum Inhibitory Concentration (MIC)
[36] = Bs, pH 6.8, 30° C., 48 hours, read-out: Minimum Inhibitory Concentration (MIC)
[37] = Bs, pH 8.2, 30° C., 48 hours, read-out: Minimum Inhibitory Concentration (MIC)
[38] = Ap, malt yeast agar, 30° C., 72 hours for fungi
[39] = Ca, malt yeast agar, 30° C., 48 hours for yeast
[40] = Tv, malt yeast agar, 30° C., 72 hours for fungi
[41] = Sa, pH 6.8, 30° C., 48 hours, read-out: Minimum Inhibitory Concentration (MIC)
[42] = Sa, pH 8.2, 30° C., 48 hours, read-out: Minimum Inhibitory Concentration (MIC)
[43] = Pc, malt yeast agar, 30° C., 72 hours for fungi

Structure (SMILES): N#CSc1nsnc1Cl [Example 1, 4-Chloro-3-thiocyanato-1,2,5-thiadiazole]
MIC [1, 17]: 25 µg/mL (≈ 141 µM)
MIC [1, 18]: > 500 µg/mL
MIC ([2]; 48 h): < 10 µg/mL
MIC [3, 17]: 25 µg/mL (≈ 141 µM)
MIC [3, 18]: > 500 µg/mL
MIC ([4]; 72 h): < 10 µg/mL
MIC [5, 17]: 50 µg/mL (≈ 281 µM)
MIC [5, 18]: > 500 µg/mL
MIC [6, 17]: 25 µg/mL (≈ 141 µM)
MIC [6, 18]: > 500 µg/mL
MIC [7, 17]: 25 µg/mL (≈ 141 µM)
MIC [7, 18]: > 500 µg/mL
MIC ([8]; 72 h): < 10 µg/mL
MIC [9, 17]: 50 µg/mL (≈ 281 µM)
MIC [9, 18]: > 500 µg/mL
MIC [10, 17]: 25 µg/mL (≈ 141 µM)
MIC [10, 18]: > 500 µg/mL
MIC [11, 17]: 25 µg/mL (≈ 141 µM)
MIC [11, 18]: 500 µg/mL (≈ 2810 µM)
MIC ([12]; 72 h): < 10 µg/mL
MIC ([13]; 48 h): < 10 µg/mL
MIC ([14]; 72 h): < 10 µg/mL
MIC [15, 17]: 25 µg/mL (≈ 141 µM)
MIC [15, 18]: > 500 µg/mL
MIC ([16]; 72 h): < 10 µg/mL

MIC [2, 21]: < 10 µg/mL
MIC [3, 22]: 25 µg/mL (≈ 112 µM)
MIC [3, 23]: 50 µg/mL (≈ 223 µM)
MIC [4, 24]: < 10 µg/mL
MIC [5, 25]: 25 µg/mL (≈ 112 µM)
MIC [5, 26]: 100 µg/mL (≈ 447 µM)
MIC [6, 27]: 25 µg/mL (≈ 112 µM)
MIC [6, 28]: 50 µg/mL (≈ 223 µM)
MIC [7, 29]: < 10 µg/mL
MIC [7, 30]: 25 µg/mL (≈ 112 µM)
MIC [8, 31]: < 10 µg/mL
MIC [9, 32]: < 10 µg/mL
MIC [9, 33]: 25 µg/mL (≈ 112 µM)
MIC [10, 34]: 25 µg/mL (≈ 112 µM)
MIC [10, 35]: 100 µg/mL (≈ 447 µM)
MIC [11, 36]: < 10 µg/mL
MIC [11, 37]: 25 µg/mL (≈ 112 µM)
MIC [12, 38]: < 10 µg/mL
MIC [13, 39]: < 10 µg/mL
MIC [14, 40]: < 10 µg/mL
MIC [15, 41]: 25 µg/mL (≈ 112 µM)
MIC [15, 42]: 50 µg/mL (≈ 223 µM)
MIC [16, 43]: < 10 µg/mL
Structure (SMILES): N#CSCSc1nsnc1Cl [Example 3, 4-chloro-3-thiomethylthiocyanato-1,2,5,-thiadiazole]
MIC [1, 19]: 25 µg/mL (≈ 112 µM)
MIC [1, 20]: 50 µg/mL (≈ 223 µM)

MIC [2, 21]: < 10 µg/mL
MIC [3, 22]: > 500 µg/mL
MIC [3, 23]: > 500 µg/mL
MIC [4, 24]: 250 µg/mL (≈ 780 µM)
MIC [5, 25]: > 500 µg/mL
MIC [5, 26]: > 500 µg/mL
MIC [6, 27]: > 500 µg/mL
MIC [6, 28]: > 500 µg/mL
MIC [7, 29]: > 500 µg/mL
MIC [7, 30]: > 500 µg/mL
MIC [8, 31]: < 10 µg/mL
MIC [9, 32]: > 500 µg/mL
MIC [9, 33]: > 500 µg/mL
MIC [10, 34]: > 500 µg/mL
MIC [10, 35]: > 500 µg/mL
MIC [11, 36]: > 500 µg/mL
MIC [11, 37]: > 500 µg/mL
MIC [12, 38]: < 10 µg/mL
MIC [13, 39]: 100 µg/mL (≈ 312 µM)
MIC [14, 40]: > 500 µg/mL
MIC [15, 41]: > 500 µg/mL
MIC [15, 42]: > 500 µg/mL
MIC [16, 43]: < 10 µg/mL
Structure (SMILES): N#CSCCSc1nsnc1SCCSC#N [Example 5, Bis(thioethylthiocyanato)-1,2,5-thiadiazole]
MIC [1, 19]: > 500 µg/mL
MIC [1, 20]: > 500 µg/mL
